target: T1, human TRPM8 (Homo sapiens, UniProt Q7Z2W7); experiment: Menthol-induced Ca2+ influx in HEK293 cells stably expressing human TRPM8; format: cell-based; details: 30 microM menthol-induced Ca2+ influx, read-out: IC50 against TRPM8
T1 construct: expressed in transfected cells; host or cells: HEK293
Procedure, shortened: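 HEK293 cells stably expressing human TRPM8 were loaded with Fluo4-AM for 1 h at room temperature, preincubated 5 min with compound, then challenged with 30 microM menthol. Calcium rise was read by FDSS imaging. IC50 came from 11-point curves using duplicate-well means.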

T1 sequence (Q7Z2W7 whole entry): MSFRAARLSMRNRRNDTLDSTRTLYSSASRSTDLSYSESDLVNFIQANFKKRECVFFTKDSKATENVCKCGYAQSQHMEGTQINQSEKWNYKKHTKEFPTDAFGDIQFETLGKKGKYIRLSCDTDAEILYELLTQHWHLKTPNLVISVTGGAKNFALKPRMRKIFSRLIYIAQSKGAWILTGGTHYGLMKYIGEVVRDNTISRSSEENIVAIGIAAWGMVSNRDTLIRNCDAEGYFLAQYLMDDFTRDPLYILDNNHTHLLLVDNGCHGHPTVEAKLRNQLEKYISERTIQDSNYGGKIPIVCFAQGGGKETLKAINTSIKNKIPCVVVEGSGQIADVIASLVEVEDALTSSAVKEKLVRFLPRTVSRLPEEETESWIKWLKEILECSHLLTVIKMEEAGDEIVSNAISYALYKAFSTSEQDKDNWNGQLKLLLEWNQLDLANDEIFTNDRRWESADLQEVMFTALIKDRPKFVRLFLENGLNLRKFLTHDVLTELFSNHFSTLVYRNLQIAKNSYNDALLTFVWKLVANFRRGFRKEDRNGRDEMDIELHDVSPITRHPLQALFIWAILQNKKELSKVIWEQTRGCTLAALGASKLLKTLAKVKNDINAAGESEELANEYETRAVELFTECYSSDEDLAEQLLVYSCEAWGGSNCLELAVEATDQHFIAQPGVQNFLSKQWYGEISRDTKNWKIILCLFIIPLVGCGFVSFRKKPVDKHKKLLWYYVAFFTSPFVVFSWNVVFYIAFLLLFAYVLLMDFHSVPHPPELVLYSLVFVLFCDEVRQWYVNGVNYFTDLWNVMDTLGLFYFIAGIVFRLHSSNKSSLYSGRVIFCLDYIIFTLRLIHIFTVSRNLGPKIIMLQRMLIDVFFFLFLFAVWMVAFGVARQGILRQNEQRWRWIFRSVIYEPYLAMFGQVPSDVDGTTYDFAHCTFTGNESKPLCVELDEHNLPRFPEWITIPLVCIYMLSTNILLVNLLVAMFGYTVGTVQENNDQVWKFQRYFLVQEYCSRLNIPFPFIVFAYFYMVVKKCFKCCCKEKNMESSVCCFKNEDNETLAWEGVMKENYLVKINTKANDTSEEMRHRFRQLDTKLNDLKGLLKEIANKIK

| IC50 | SMILES |
| --- | --- |
| < 100 nM | O=C(CN1C(=O)NC2(CCC(F)(F)CC2)C1=O)c1ccc(-c2cccnc2CO)nc1 [Example 9-25] |
| < 100 nM | CCN(c1ccccc1)c1ccc(C(=O)CN2C(=O)NC3(CCCCC3)C2=O)cn1 [Example 19-3] |
| < 500 nM | O=C(CN1C(=O)NC2(CCC(F)(F)CC2)C1=O)c1ccc(-c2cccc3c2CCN3)cc1 [Example 6-72] |
| < 100 nM | Cc1cc(C(=O)CN2C(=O)NC3(CCC(F)(F)CC3)C2=O)n(C)c1-c1cccc2c1CNC2=O [Example 16-17] |
| < 100 nM | O=C(CN1C(=O)NC2(CCC(F)(F)CC2)C1=O)c1ccc(-c2nccc3[nH]ncc23)cc1 [Example 6-20] |
| < 500 nM | O=C(CN1C(=O)NC2(CCCCC2)C1=O)c1ccc(Oc2ccccc2Cl)nc1 [Example 20-5] |
| < 10 nM | Cc1nc(C(=O)CN2C(=O)NC3(CCC(F)(F)CC3)C2=O)n(C)c1-c1cccc(F)c1 [Example 17-6] |
| < 500 nM | Cc1nc2nccnc2n1-c1ccc(C(=O)CN2C(=O)NC3(CCC(F)(F)CC3)C2=O)cc1 [Example 19-39] |
| < 500 nM | Cc1nc(C(=O)CN2CC3(CCC(F)(F)CC3)OC2=O)c(C)n1-c1ccccc1 [Example 2-7] |
| < 500 nM | COCc1nc2cccnc2n1-c1ccc(C(=O)CN2C(=O)NC3(CCC(F)(F)CC3)C2=O)cc1 [Example 24-4] |
| < 100 nM | Cc1cnc(C)c(-c2ccc(C(=O)CN3C(=O)NC4(CCCCC4)C3=O)cc2)n1 [Example 7-4] |
| < 500 nM | Cc1ccc2nc(C)n(-c3ccc(C(=O)CN4CC5(CCC(F)(F)CC5)OC4=O)cc3)c2n1 [Example 22-6] |
| < 100 nM | O=C(CN1C(=O)NC2(CCCCC2)C1=O)c1ccc(Oc2cccc(Cl)c2)nc1 [Example 20-1, 3-(2-(6-(3-chlorophenoxy)pyridin-3-yl)-2-oxoethyl)-1,3-diazaspiro[4.5]decane-2,4-dione] |
| < 100 nM | O=C(CN1C(=O)NC2(CCC(F)(F)CC2)C1=O)c1ccc(-n2ccc3ccncc32)nc1 [Example 19-8] |
| < 100 nM | O=C(CN1C(=O)NC2(CCCCC2)C1=O)c1ccc(-c2cccnc2)nc1 [Example 5-2] |
| < 100 nM | Cc1nc2ccccc2n1-c1ccc(C(=O)CN2C(=O)NC3(CCCCCC3)C2=O)cc1 [Example 5-13] |
| < 100 nM | Cc1ccccc1-c1c(C)cc(C(=O)CN2C(=O)NC3(CCC(F)(F)CC3)C2=O)n1C [Example 16-19] |
| < 100 nM | Cn1c(=O)n(-c2ccc(C(=O)CN3C(=O)NC4(CCC(F)(F)CC4)C3=O)cc2)c2ccccc21 [Example 19-23] |
| < 100 nM | Cc1ccnnc1-c1ccc(C(=O)CN2C(=O)OC3(CCC(F)(F)CC3)C2=O)cc1 [Example 7-21] |
| < 100 nM | Cc1cc(C(=O)CN2C(=O)NC3(CCC(F)(F)CC3)C2=O)n(C)c1-c1cccc(Cl)c1 [Example 16-12] |
| < 500 nM | N#Cc1cncnc1-c1ccc(C(=O)CN2C(=O)NC3(CCC(F)(F)CC3)C2=O)cc1 [Example 6-93] |
| < 500 nM | Cc1cc(C(=O)CN2C(=O)NC3(CCC(F)(F)CC3)C2=O)c(C)n1-c1ccc2ccccc2n1 [Example 3-20] |
| < 100 nM | Cc1c(C(=O)CN2C(=O)NC3(CCC(F)(F)CC3)C2=O)cn(C)c1-c1cncc(F)c1 [Example 16-23] |
| < 100 nM | Cc1nc(C(=O)CN2C(=O)NC3(CCC(F)(F)CC3)C2=O)c(C)n1-c1ccccc1 [Example 2-2] |

| IC50 | SMILES |
| --- | --- |
| < 500 nM | O=C(CN1C(=O)NC2(CCC(F)(F)CC2)C1=O)c1ccc(Oc2ccccc2)nc1 [Example 5-23] |
| < 500 nM | Cc1nccnc1-c1ccc(C(=O)CN2CC3(CCC(F)(F)CC3)OC2=O)cc1 [Example 7-19] |
| < 500 nM | COc1cc(C(=O)CN2C(=O)NC3(CCC(F)(F)CC3)C2=O)ccc1-c1cccc(F)c1 [Example 5-4] |
| < 100 nM | N#CCc1ccccc1-c1ccc(C(=O)CN2C(=O)NC3(CCC(F)(F)CC3)C2=O)cc1 [Example 6-108] |
| < 100 nM | Cc1nc2ccccc2n1-c1ccc(C(=O)CN2CC3(CCC(F)(F)CC3)OC2=O)cc1 [Example 22-3] |
| < 100 nM | Cc1cc(C(=O)CN2C(=O)NC3(CCC(F)(F)CC3)C2=O)n(C)c1-c1ccccc1F [Example 16-13] |
| < 100 nM | Cc1cc(C(=O)CN2C(=O)NC3(CCC(F)(F)CC3)C2=O)ccc1-c1cccc(C(N)=O)c1 [Example 13-13] |
| < 10 nM | Cc1sc(C(=O)CN2C(=O)NC3(CCC(F)(F)CC3)C2=O)c(C)c1-c1cncc(F)c1 [Example 15-6] |
| < 100 nM | N#Cc1cccnc1-c1ccc(C(=O)CN2C(=O)NC3(CCCCC3)C2=O)cc1 [Example 7-12] |
| < 500 nM | O=C(CN1C(=O)NC2(CCC(F)(F)CC2)C1=O)c1ccc(Oc2cccnc2)cc1F [Example 21-16] |
| < 500 nM | Cn1cc2c(-c3ccc(C(=O)CN4C(=O)NC5(CCC(F)(F)CC5)C4=O)cc3)cccc2n1 [Example 6-69] |
| < 100 nM | N#Cc1cccc(-c2ccc(C(=O)CN3C(=O)NC4(CCCCC4)C3=O)c(F)c2)c1 [Example 13-19] |
| < 100 nM | O=C(CN1C(=O)NC2(CCC(F)(F)CC2)C1=O)c1ccc(-c2nccc3ccncc23)cc1 [Example 6-44] |
| < 500 nM | O=C(CN1CC2(CCC(F)(F)CC2)OC1=O)c1ccc(-c2cnccc2CO)cc1 [Example 7-16] |
| < 100 nM | O=C(CN1C(=O)NC2(CCCCCC2)C1=O)c1ccc(Oc2cccnn2)cc1 [Example 5-41] |
| < 500 nM | O=C(CN1C(=O)NC2(CCC(F)(F)CC2)C1=O)c1ccc(-c2ncnc3cnccc23)cc1 [Example 6-51] |
| < 100 nM | Cc1ncccc1-c1ccc(C(=O)CN2C(=O)NC3(CCC(F)(F)CC3)C2=O)cn1 [Example 9-15] |
| < 500 nM | Cc1sc(C(=O)CN2C(=O)NC3(CCC(F)(F)CC3)C2=O)c(C)c1-c1cccc(CO)c1 [Example 15-12] |
| < 500 nM | Cc1ccnnc1-c1ccc(C(=O)CN2C(=O)NC3(CCCCC3)C2=O)cc1 [Example 7-23] |
| < 100 nM | Cc1nc(C(=O)CN2C(=O)NC3(CCC(F)(F)CC3)C2=O)n(C)c1-c1cccc(C#N)c1 [Example 17-8] |
| < 100 nM | Cc1nc(C(=O)CN2C(=O)NC3(CCC(F)(F)CC3)C2=O)sc1-c1cc(F)cc(F)c1 [Example 18-11] |
| < 500 nM | Cc1c(C(=O)CN2CC3(CCC(F)(F)CC3)OC2=O)ccn1-c1ccccc1 [Example 4-9] |
| < 100 nM | Cc1ncccc1-c1ccc(C(=O)CN2C(=O)NC3(CCCCC3)C2=O)cn1 [Example 9-7] |
| < 500 nM | O=C(CN1C(=O)NC2(CCC(F)(F)CC2)C1=O)c1ccc(-c2ncn3ccccc23)cc1 [Example 6-64] |

| IC50 | SMILES |
| --- | --- |
| < 500 nM | Nc1ccnnc1-c1ccc(C(=O)CN2C(=O)NC3(CCC(F)(F)CC3)C2=O)cc1F [Example 8-6] |
| < 100 nM | Cc1cc(C(=O)CN2C(=O)NC3(CCC(F)(F)CC3)C2=O)sc1-c1cnccc1C(F)(F)F [Example 14-15] |
| < 500 nM | N#Cc1ncccc1-c1ccc(C(=O)CN2CC3(CCC(F)(F)CC3)OC2=O)cc1 [Example 7-20] |
| < 100 nM | Cc1ccncc1-c1ccc(C(=O)CN2CC3(CCCCC3)OC2=O)cc1 [Example 13-51] |
| < 100 nM | O=C(CN1C(=O)NC2(CCCCC2)C1=O)c1ccc(-c2cccnc2CO)cc1 [Example 7-11] |
| < 100 nM | O=C(CN1C(=O)NC2(CCC(F)(F)CC2)C1=O)c1ccc(Oc2cccnc2)cc1 [Example 21-14, 8,8-difluoro-3-(2-oxo-2-(4-(pyridin-3-yloxy)phenyl)ethyl)-1,3-diazaspiro[4.5]decane-2,4-dione] |
| < 100 nM | Cc1ccncc1-c1ccc(C(=O)CN2C(=O)NC3(CCC(F)(F)CC3)C2=O)cc1Cl [Example 13-23] |
| < 100 nM | Cc1cc(C(=O)CN2C(=O)NC3(CCCCC3)C2=O)ccc1-c1ccccc1 [Example 13-5] |
| < 100 nM | N#Cc1nccnc1Oc1ccc(C(=O)CN2C(=O)NC3(CCC(F)(F)CC3)C2=O)cc1 [Example 21-8] |
| < 500 nM | Cn1c(C(=O)CN2C(=O)NC3(CCC(F)(F)CC3)C2=O)ccc1-c1ccccc1CO [Example 16-30] |
| < 100 nM | Cc1ccsc1-c1ccc(C(=O)CN2C(=O)NC3(CCCCC3)C2=O)cc1 [Example 7-3] |
| < 500 nM | O=C(CN1C(=O)NC2(CCC(F)(F)CC2)C1=O)c1ccc(Oc2ncccn2)cc1 [Example 5-21] |
| < 500 nM | Cc1ccnnc1Oc1ccc(C(=O)CN2C(=O)NC3(CCC(F)(F)CC3)C2=O)cc1 [Example 21-11, 8,8-difluoro-3-(2-(4-((4-methylpyridazin-3-yl)oxy)phenyl)-2-oxoethyl)-1,3-diazaspiro[4.5]decane-2,4-dione] |
| < 10 nM | O=C(CN1C(=O)NC2(CCC(F)(F)CC2)C1=O)c1ccc(-c2cncc3[nH]ncc23)cc1 [Example 6-4] |
| < 100 nM | O=C(CN1C(=O)NC2(CCC(F)(F)CC2)C1=O)c1cnc(N2C(=O)COc3ccccc32)cn1 [Example 19-25] |
| < 500 nM | Cc1ccccc1-c1c(C)sc(C(=O)CN2C(=O)NC3(CCC(F)(F)CC3)C2=O)c1C [Example 15-9] |
| < 100 nM | O=C(CN1C(=O)NC2(CCCCC2)C1=O)c1ccc(Oc2ccccn2)cc1 [Example 5-18] |
| < 500 nM | O=C(CN1C(=O)NC2(CCC(F)(F)CC2)C1=O)c1ccc(-c2ccnc3[nH]ncc23)nc1 [Example 9-26] |
| < 100 nM | COC(=O)c1cccc(-n2c(C)cc(C(=O)CN3C(=O)NC4(CCCCC4)C3=O)c2C)c1 [Example 3-8] |
| < 100 nM | Cc1c(C(=O)CN2C(=O)NC3(CCC(F)(F)CC3)C2=O)cn(C)c1-c1cccc(F)c1 [Example 16-24] |
| < 100 nM | O=C(CN1C(=O)NC2(CCC(F)(F)CC2)C1=O)c1ccc(-c2cccc3[nH]ccc23)cc1 [Example 13-42] |
| < 500 nM | Cc1ccc(C)c(-c2ccc(C(=O)CN3C(=O)NC4(CCC(F)(F)CC4)C3=O)cc2)c1 [Example 6-78] |
| < 500 nM | Cc1sc(C(=O)CN2C(=O)NC3(CCC(F)(F)CC3)C2=O)c(C)c1-c1cncc(C(N)=O)c1 [Example 15-10] |

Source: patent US10093678B2, “Azaspiro derivatives as TRPM8 antagonists” (RaQualia Pharma Inc., priority 2014, dated 2018)
